Reference: US9872851B2, “Methods of treating portal hypertension” (The Charlotte-Mecklenburg Hospital Authority, priority 2012, dated 2018)

Legend:
primary rat HSCs [1] = experiment: qRT-PCR gene expression in culture-activated primary rat HSCs; type: cell-based
Experimental: (§1) A series of experiments were conducted to determine the functional role of Rev-erbα in HSC transdifferentiation. In these experiments, culture-activated primary rat HSCs and human LX-2 cells were used. To determine the effect of Rev-erbα on HSC transdifferentiation and contraction, cells were treated with a specific synthetic modulator, SR6452 (10 μM). mRNA and protein expression were determined by qRT-PCR and Western blot, respectively. Changes in cellular morphology, Rev-erbα expression/localization and αSMA expression were observed by confocal microscopy. Additionally, cell contractility was assessed.
(§2) Primary rat HSCs were isolated by pronase/collagenase perfusion digestion followed by density gradient centrifugation with Optiprep. Media was replaced every other day to replenish Rev-erb modulator SR6452, which was present at a 10 μM concentration. Cells were treated with MDIR mixture (IBMX, dexamethasone, insulin, rosiglitazone), TGFβ, or DMSO (vehicle). Some experiments were performed with the human HSC cell line, LX-2.
mRNA expression was normalized to 18S rRNA.
(§3) FIGS. 3A-B illustrates that modulation of Rev-erbα activity can regulate adipogenesis. Primary HSCs were culture-activated for 5 days (A) or 15 days (B). Cells were treated with vehicle (DMSO, open bar), or the Rev-erb modulator SR6452 (10 mM, purple bar) for the days indicated. The medium was changed every 48 hrs. FIG. 3A provides a chart summarizing the amount of PPARγ, SREBP1, and Lep mRNA on day 5.
FIGS. 4A-B illustrate that the Rev-erb modulator SR6452 can suppress/decrease ECM gene expression. Primary rat HSCs were cultured from quiescence (day Q) to day 5 (FIG. 4A) or from day 9 to day 12 (FIG. 4B) and treated with Rev-erb modulator SR6452. qRT-PCR was performed to determine ECM gene expression. DMSO was used as the vehicle control, while SR6452 was used as the Rev-erb modulator.
(§4) FIGS. 5A-D illustrate that Rev-erb modulator SR6452 can regulate myofibroblast marker expression and HSC contraction. Primary rat HSCs were cultured from quiescence (day Q) to day 5 (FIG. 5A) or from day 9 to day 12 (FIG. 5B) and treated with Rev-erb modulator SR6452. qRT-PCR was performed for myofibroblast gene expression. Samples were normalized with 18S rRNA. […] HSCs (day 5) were embedded in a collagen gel and treated as indicated for 48 hrs. Gels were then released from plastic surface and contraction monitored after 72 hrs. Materials used were DMSO (vehicle control), SR6452, Rev-erb modulator; and BDM (2,3-Butanedione monoxime), myosin inhibitor.

primary HSCs [2] = experiment: Oil Red O staining / adipogenesis of HSCs; type: cell-based, rat
Experimental: FIGS. 3A-B illustrate how modulation of Rev-erbα activity can regulate adipogenesis. Primary HSCs were culture-activated for 5 days (A) or 15 days (B). Cells were treated with vehicle, DMSO (open bar), or Rev-erb agonist SR6452 ([…], solid bar). FIG. 3A provides a graph summarizing the amount of PPARγ, SREBP1, and Lep mRNA detected after 5 days of culture.
as §2, §3

primary HSCs [3] = experiment: Immunocytochemistry (αSMA, DAPI) and cellular morphology by confocal microscopy; type: cell-based, rat; conditions: HSCs (day 9) treated 72 hrs
Experimental: as §1
Prior to transfection, culture-activated HSCs (for varying days of activation) were seeded onto glass coverslips. Cells were fixed with 4% paraformaldehyde and stained with anti-αSMA antibody, a marker of HSC activation. Cells were imaged using a Zeiss confocal microscope. The fluorescence indicates Rev-erbα or αSMA expression.
FIGS. 5A-D illustrate that Rev-erb modulator SR6452 can regulate myofibroblast marker expression and HSC contraction. Primary rat HSCs were cultured from quiescence (day Q) to day 5 (FIG. 5A) or from day 9 to day 12 (FIG. 5B) and treated with Rev-erb modulator SR6452. qRT-PCR was performed for myofibroblast gene expression. Samples were normalized with 18S rRNA. […] Gels were then released from plastic surface and contraction monitored after 72 hrs. […]

primary rat HSCs [4] = experiment: Cell contraction assay (collagen lattice); type: cell-based; conditions: collagen gel, SR6452
Experimental: Primary rat HSCs (day 9, 2-5×10^6 cells/ml) were embedded in a collagen lattice per manufacturer's instructions. Cells were treated with synthetic Rev-erbα ligand SR6452. Collagen gel size change was imaged using a BioSpectrum Imaging System.
as §4

cirrhotic rats = experiment: Hemodynamic measurements in bile duct-ligated (BDL) rats; type: in vivo, rat; conditions: 10 μM/kg femoral vein, one hour
Experimental: Studies were performed to determine the in vivo efficacy of using SR6452 as a treatment for portal hypertension. Rats underwent bile duct-ligation (˜5 weeks, until ascites developed) to induce fibrosis and thus portal hypertension. Initial hemodynamic measurements were taken prior to addition of the agonist. SR6452 (10 μM/kg body weight) was administered via the femoral vein and measurements taken again one hour after administration. Experiments were performed 5 weeks after male Sprague-Dawley rats underwent bile duct-ligation (BDL), when cirrhosis was fully established and ascites present. SR6452 (10 μM/kg body weight) was administered via the femoral vein and hemodynamic measurements taken one hour after administration. Hemodynamic studies were performed as previously described (J Hepatol 2012 57:1220-1227). Briefly, a laparotomy was performed under anesthesia. A PE-50 catheter was introduced into a small ileocolic vein and advanced to the portal vein for measurement of portal pressure. The left femoral artery and vein were cannulated with PE-50 catheters for measurement of mean arterial pressure, central venous pressure and blood withdrawal. Via the right carotid artery, another PE-50 catheter was advanced into the left ventricle under pulse curve control, for microsphere application. After insertion of all catheters, rats were allowed to stabilize hemodynamically for 30 min. Cardiac output and organ perfusions were measured using the colored microsphere method as described (J Hepatol 2012 57:1220-1227). Briefly, 300,000 systemic (yellow) microspheres (15 μm diameter) were injected in the left ventricle. The mesenteric portal-systemic shunt volume was estimated after injection of 150,000 blue microspheres in an ileocolic vein.

Rev-erbα = experiment: Western blot of Rev-erbα in HSCs treated with pro- and anti-fibrogenic factors; type: cell-based, rat
Experimental: FIGS. 2A-B illustrate the regulation of Rev-erbα expression by pro- and anti-fibrogenic factors. […] Cells were harvested for protein and Western blots performed to detect Rev-erbα.
as §2
FIG. 2B show results from primary HSCs that were treated with pro-fibrogenic factor TGFβ (5 ng/ml) or myosin inhibitors blebbistatin (Bleb) or BDM (2,3-Butanedione monoxime) for 48 hrs. Cells were harvested for protein and Western blots performed to detect Rev-erbα.

[5] = SR6452 10 μM, day Q to day 5 or day 9 to day 12

| Compound | effects on major regulatory and structural genes controlling myofibroblast contraction (primary rat HSCs [1]; [5]) | expression of key extracellular matrix components, including Type I collagen, fibronectin, and tenascin C (primary rat HSCs [1]; [5]) | expression of major adipogenic factors, notably PPARγ and SREBP1 (primary rat HSCs [1]; SR6452 10 μM, mRNA, day 5) | effect on HSC activation (primary rat HSCs [1]; overall conclusion of the in vitro data) | lipid content in activated HSCs (primary HSCs [2]; SR6452 10 μM, primary HSCs) | HSC adipogenesis (primary HSCs [2]; exposure of quiescent HSCs) | morphology of treated primary HSCs (primary HSCs [3]) | HSC contraction (primary rat HSCs [4]) | portal pressure (PP) after SR6452 (cirrhotic rats; mean, p=0.017) | hepatic-portal vascular resistance after SR6452 (cirrhotic rats; mean, p=0.043) | splanchnic vascular resistance after SR6452 (cirrhotic rats; mean, p=0.048) | reduction in hepatic-portal vascular resistance (cirrhotic rats; vs baseline) | reduction in splanchnic vascular resistance (cirrhotic rats; vs baseline) | cytoplasmic Rev-erbα (Rev-erbα; TGFβ 5 ng/ml, 48 hrs) | Rev-erbα protein expression (Rev-erbα; Western blot) |
| --- | --- | --- | --- | --- | --- | --- | --- | --- | --- | --- | --- | --- | --- | --- | --- |
| CC(C)(C)OC(=O)CN(Cc1ccc(Cl)cc1)Cc1ccc([N+](=O)[O-])s1 [SR6452] | repressive effects | significantly down-regulated | up-regulated | suppressive effect | increased | promoted | slightly rounded/folded cytoplasm with disoriented actin fibers | impeded | 19.1 mmHg | 8.8 mmHg/min/100 g/ml | 27.5 mmHg/min/100 g/ml | 36% | 13.5% | – | – |
| TGFβ | – | – | – | – | – | – | – | – | – | – | – | – | – | stabilized | increased |
